In patent US6743809B2, “Indole Derivatives useful for the treatment of CNS disorders” (H. Lundbeck A/S, priority 2000, dated 2004):

target: T1, human cloned dopamine D4.2 receptors (Homo sapiens, UniProt P21917, DEL265-296); assay: Inhibition of the binding of [3H]YM-09151-2 to human dopamine D4 receptors; conditions: 50 nM compound; [3H]YM-09151-2 0.06 nM; membranes of CHO-cells
T1 construct: expressed in transfected cells; host or cells: CHO cells
T1 sequence (P21917 with tags, fused parts or gaps DEL265-296): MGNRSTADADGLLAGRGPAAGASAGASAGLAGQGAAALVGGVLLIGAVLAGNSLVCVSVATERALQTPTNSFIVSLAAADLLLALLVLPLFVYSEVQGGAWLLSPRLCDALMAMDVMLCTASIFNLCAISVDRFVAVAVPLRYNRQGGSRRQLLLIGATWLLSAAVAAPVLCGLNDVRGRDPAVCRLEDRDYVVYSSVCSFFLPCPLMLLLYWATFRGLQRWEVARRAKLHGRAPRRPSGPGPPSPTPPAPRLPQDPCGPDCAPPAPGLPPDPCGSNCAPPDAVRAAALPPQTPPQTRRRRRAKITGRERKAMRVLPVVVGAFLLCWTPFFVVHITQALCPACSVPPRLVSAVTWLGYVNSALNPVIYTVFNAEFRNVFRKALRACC
Description: Inhibition of the Binding of [^3H]YM-09151-2 to Human Dopamine D4 Receptors
By this method, the inhibition by drugs of the binding of [^3H]YM-09151-2 (0.06 nM) to membranes of human cloned dopamine D4.2 receptors expressed in CHO-cells is determined in vitro. The method is modified from NEN Life Science Products, Inc., technical data certificate PC2533-10/96.

Row | inhibition at 0.05 µM [%] | SMILES
1 | 95 | Cc1ccc(NC(=O)C2CCCC2)cc1CCN1CCC(c2c[nH]c3cc(Cl)ccc23)CC1 [Compound 3v, 3-[1-(2-{5-[(Cyclopentylmethanoyl)amino]-2-methylphenyl}ethyl)piperidin-4-yl]-6-chloro-1H-indole]
2 | 86 | Cc1ccc(C(=O)Nc2ccc(C)c(CCN3CCC(c4c[nH]c5cc(Cl)ccc45)CC3)c2)cc1 [Compound 3u, 3-(1-{2-[2-Methyl-5-(4-methylbenzoylamino)phenyl]ethyl}piperidin-4-yl)-6-chloro-1H-indole]
3 | 92 | Cc1ccc(NC(=O)c2cccnc2)cc1CCN1CCC(c2c[nH]c3cc(Cl)ccc23)CC1 [Compound 3s, 3-(1-{2-[2-Methyl-5-(pyridin-3-ylmethanoylamino)phenyl]ethyl}piperidin-4-yl)-6-chloro-1H-indole]
4 | 83 | Cc1ccc(NC(=O)CCc2ccccc2)cc1CCN1CCC(c2c[nH]c3c(Cl)cccc23)CC1 [Compound 3ad, 3-[1-(2-{5-[(3-Phenylpropanoyl)amino]-2-methylphenyl}ethyl)piperidin-4-yl]-7-chloro-1H-indole]
5 | 88 | COc1cccc(C(=O)Nc2ccc(C)c(CCN3CCC(c4c[nH]c5cc(Cl)ccc45)CC3)c2)c1 [Compound 3r, 3-(1-{2-[5-(3-Methoxybenzoylamino)-2-methylphenyl]ethyl}piperidin-4-yl)-6-chloro-1H-indole]
6 | 90 | COc1cccc(C(=O)Nc2ccc(C)c(CCN3CCC(c4c[nH]c5ccc(F)cc45)CC3)c2)c1 [Compound 3j, 3-(1-{2-[5-(3-Methoxybenzoylamino)-2-methylphenyl]ethyl}piperidin-4-yl)-5-fluoro-1H-indole]
7 | 79 | Cc1ccc(NC(=O)c2ccc(Cl)cc2)cc1CCN1CCC(c2c[nH]c3c(Cl)cccc23)CC1 [Compound 3ab, 3-(1-{2-[5-(4-Chlorobenzoylamino)-2-methylphenyl]ethyl}piperidin-4-yl)-7-chloro-1H-indole]
8 | 96 | Cc1ccc(NC(=O)C2CCOCC2)cc1CCN1CCC(c2c[nH]c3ccc(F)cc23)CC1 [Compound 3aa, 3-(1-{2-[2-Methyl-5-(tetrahydropyran-4-ylmethanoylamino)phenyl]ethyl}piperidin-4-yl)-5-fluoro-1H-indole]
9 | 74 | Cc1ccc(NC(=O)CCc2ccccc2)cc1CCN1CCC(c2c[nH]c3ccc(F)cc23)CC1 [Compound 3l, 3-(1-{2-[2-Methyl-5-(3-phenylpropanoylamino)phenyl]ethyl}piperidin-4-yl)-5-fluoro-1H-indole]
10 | 67 | Cc1ccc(NC(=O)c2cnns2)cc1CCN1CCC(c2c[nH]c3c(Cl)cccc23)CC1 [Compound 4k, 3-[1-(2-{2-Methyl-5-[(1-[1,2,3]thiadiazol-5-ylmethanoyl)amino]phenyl}ethyl)piperidin-4-yl]-7-chloro-1H-indole]
11 | 81 | Cc1ccc(C(=O)Nc2ccc(C)c(CCN3CCC(c4c[nH]c5ccc(F)cc45)CC3)c2)cc1 [Compound 3m, 3-(1-{2-[2-Methyl-5-(4-methylbenzoylamino)phenyl]ethyl}piperidin-4-yl)-5-fluoro-1H-indole]
12 | 91 | Cc1ccc(NC(=O)c2cccnc2)cc1CCN1CCC(c2c[nH]c3ccc(F)cc23)CC1 [Compound 3k, 3-(1-{2-[2-Methyl-5-(pyridin-3-ylmethanoylamino)phenyl]ethyl}piperidin-4-yl)-5-fluoro-1H-indole]

target: T2, D4 receptor (Homo sapiens, UniProt P21917); assay: not given; conditions: literature report, result in words; cited from earlier work
T2 sequence (P21917 1-419): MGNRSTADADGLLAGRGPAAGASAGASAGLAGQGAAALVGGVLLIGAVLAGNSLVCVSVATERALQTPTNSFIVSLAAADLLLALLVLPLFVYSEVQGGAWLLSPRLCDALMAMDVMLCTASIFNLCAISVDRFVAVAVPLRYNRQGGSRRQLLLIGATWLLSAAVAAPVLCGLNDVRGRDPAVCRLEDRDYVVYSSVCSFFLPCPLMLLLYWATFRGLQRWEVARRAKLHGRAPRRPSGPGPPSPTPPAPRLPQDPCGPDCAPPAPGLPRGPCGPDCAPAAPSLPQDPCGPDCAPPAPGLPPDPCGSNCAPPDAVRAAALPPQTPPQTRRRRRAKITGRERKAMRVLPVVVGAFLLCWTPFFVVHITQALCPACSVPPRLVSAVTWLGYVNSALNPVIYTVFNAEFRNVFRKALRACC

Row | SMILES | functional activity at D4 receptor
13 | CC(C)Oc1cccnc1N(C)C1CCN(Cc2ccccc2)CC1 [Compound U-101958] | partial D4 receptor agonists
